Results: patent US20120115724A1, “METHOD OF CONTROLLING UNDESIRED VEGETATION” (SYNGENTA CROP PROTECTION LLC, priority 2009, published 2012)

What was measured:
Assay type in all cases: in vivo
[1] = test system: Alopecurus myosuroides (ALOMY); experiment: Post-emergence biological efficacy (Example 14); details: post-emergence, 1,000 g/ha, after 13 days; for pest or weed control at 1000 g/ha: Alopecurus myosuroides, 312 h, read-out: Percentage damage ALOMY
Description: (§1) Seeds of Alopecurus myosuroides (ALOMY), Setaria faberi (SETFA), Echinochloa crus-galli (ECHCG), Solanum nigrum (SOLNI), Amaranthus retroflexus (AMARE) and Ipomea hederaceae (IPOHE) were sown in standard soil in pots. After cultivation for 8 days under controlled conditions in a glasshouse (at 24/16° C., day/night; 14 hours light; 65% humidity), the plants were sprayed with an aqueous spray solution derived from the formulation of the technical active ingredient in acetone/water (50:50) solution containing 0.5% Tween 20 (polyoxyethylene sorbitan monolaurate, CAS RN 9005-64-5) to give a final dose of 250 or 1000 g/ha of test compound. The test plants were then grown on under controlled conditions in a glasshouse (at 24/16° C., day/night; 14 hours light; 65% humidity) and watered twice daily. After 13 days the test was evaluated (100=total damage to plant; 0=no damage to plant).

[2] = test system: Echinochloa crus-galli (ECHCG); experiment: Post-emergence biological efficacy (Example 14); details: post-emergence, 1,000 g/ha, after 13 days; for pest or weed control at 1000 g/ha: Echinochloa crus-galli, 312 h, read-out: Percentage damage ECHCG
Description: as §1

Solanum nigrum (SOLNI) [3] = experiment: Post-emergence biological efficacy (Example 14); details: post-emergence, 1,000 g/ha, after 13 days; for pest or weed control at 1000 g/ha: Solanum nigrum, 312 h, read-out: Percentage damage SOLNI
Description: as §1

[4] = test system: Amaranthus retroflexus (AMARE); experiment: Post-emergence biological efficacy (Example 14); details: post-emergence, 1,000 g/ha, after 13 days; for pest or weed control at 1000 g/ha: Amaranthus retroflexus, 312 h, read-out: Percentage damage AMARE
Description: as §1

Setaria faberi (SETFA) [5] = experiment: Post-emergence biological efficacy (Example 14); details: post-emergence, 1,000 g/ha, after 13 days; for pest or weed control at 1000 g/ha: Setaria faberi, 312 h, read-out: Percentage damage SETFA
Description: as §1

[6] = test system: Ipomea hederaceae (IPOHE); experiment: Post-emergence biological efficacy (Example 14); details: post-emergence, 1,000 g/ha, after 13 days; for pest or weed control at 1000 g/ha: Ipomoea hederacea, 312 h, read-out: Percentage damage IPOHE
Description: as §1

[7] = test system: Alopecurus myosuroides (ALOMY); experiment: Pre-emergence biological efficacy (Example 13); details: pre-emergence, 1,000 g/ha, after 13 days; for pest or weed control at 1000 g/ha: Alopecurus myosuroides, 312 h, read-out: Percentage damage ALOMY
Description: (§2) Seeds of Alopecurus myosuroides (ALOMY), Setaria faberi (SETFA), Echinochloa crus-galli (ECHCG), Solanum nigrum (SOLNI), Amaranthus retroflexus (AMARE) and Ipomea hederaceae (IPOHE) were sown in standard soil in pots. After cultivation for one day under controlled conditions in a glasshouse (at 24/16° C., day/night; 14 hours light; 65% humidity), the plants were sprayed with an aqueous spray solution derived from the formulation of the technical active ingredient in acetone/water (50:50) solution containing 0.5% Tween 20 (polyoxyethylene sorbitan monolaurate, CAS RN 9005-64-5) to give a final dose of 250 or 1000g/ha of test compound. The test plants were then grown under controlled conditions in the glasshouse (at 24/16° C., day/night; 14 hours light; 65% humidity) and watered twice daily. After 13 days the test was evaluated (100 =total damage to plant; 0 =no damage to plant).

[8] = test system: Echinochloa crus-galli (ECHCG); experiment: Pre-emergence biological efficacy (Example 13); details: pre-emergence, 1,000 g/ha, after 13 days; for pest or weed control at 1000 g/ha: Echinochloa crus-galli, 312 h, read-out: Percentage damage ECHCG
Description: as §2

Solanum nigrum (SOLNI) [9] = experiment: Pre-emergence biological efficacy (Example 13); details: pre-emergence, 1,000 g/ha, after 13 days; for pest or weed control at 1000 g/ha: Solanum nigrum, 312 h, read-out: Percentage damage SOLNI
Description: as §2

[10] = test system: Amaranthus retroflexus (AMARE); experiment: Pre-emergence biological efficacy (Example 13); details: pre-emergence, 1,000 g/ha, after 13 days; for pest or weed control at 1000 g/ha: Amaranthus retroflexus, 312 h, read-out: Percentage damage AMARE
Description: as §2

Setaria faberi (SETFA) [11] = experiment: Pre-emergence biological efficacy (Example 13); details: pre-emergence, 1,000 g/ha, after 13 days; for pest or weed control at 1000 g/ha: Setaria faberi, 312 h, read-out: Percentage damage SETFA
Description: as §2

[12] = test system: Ipomea hederaceae (IPOHE); experiment: Pre-emergence biological efficacy (Example 13); details: pre-emergence, 1,000 g/ha, after 13 days; for pest or weed control at 1000 g/ha: Ipomoea hederacea, 312 h, read-out: Percentage damage IPOHE
Description: as §2

| SMILES | pest or weed control at 1000 g/ha [1] | pest or weed control at 1000 g/ha [2] | pest or weed control at 1000 g/ha (Solanum nigrum (SOLNI) [3]) | pest or weed control at 1000 g/ha [4] | pest or weed control at 1000 g/ha (Setaria faberi (SETFA) [5]) | pest or weed control at 1000 g/ha [6] | pest or weed control at 1000 g/ha [7] | pest or weed control at 1000 g/ha [8] | pest or weed control at 1000 g/ha (Solanum nigrum (SOLNI) [9]) | pest or weed control at 1000 g/ha [10] | pest or weed control at 1000 g/ha (Setaria faberi (SETFA) [11]) | pest or weed control at 1000 g/ha [12] | further results |
| --- | --- | --- | --- | --- | --- | --- | --- | --- | --- | --- | --- | --- | --- |
| C=Cc1c(N)nc(-c2ccc(Cl)c(N(C)C)c2F)nc1C(=O)OCCCCCCCC [Compound 41, 4-Amino-2-(4-chloro-3-dimethylamino-2-fluorophenyl)-5-ethenyl-6- ^noctyloxycarbonyl-pyrimidine] |  |  |  |  |  |  |  |  |  |  |  |  | Percentage damage ALOMY [1]: 70%; Percentage damage ECHCG [2]: 80%; Percentage damage SOLNI (Solanum nigrum (SOLNI) [3]): 90%; Percentage damage AMARE [4]: 100%; Percentage damage SETFA (Setaria faberi (SETFA) [5]): 60%; Percentage damage IPOHE [6]: 80%; Percentage damage ALOMY [7]: 70%; Percentage damage ECHCG [8]: 100%; Percentage damage SOLNI (Solanum nigrum (SOLNI) [9]): 80%; Percentage damage AMARE [10]: 100%; Percentage damage SETFA (Setaria faberi (SETFA) [11]): 90%; Percentage damage IPOHE [12]: 0% |
| C=Cc1c(NCc2ccco2)nc(-c2ccc(Cl)c(OC)c2F)nc1C(=O)OCCOCC [Compound 48, 2-(4-Chloro-2-fluoro-3-methoxyphenyl)-5-ethenyl-6-(2-ethoxy-ethoxy)carbonyl-4-(furan-2-ylmethylamino)-pyrimidine] | 0% | 0% | 50% | 40% | 0% | 60% | 0% | 0% | 0% | 0% | 0% | 0% |  |
| C=Cc1c(NCc2ccccc2[N+](=O)[O-])nc(-c2ccc(Cl)c(OC)c2F)nc1C(=O)OC [Compound 15, 2-(4-Chloro-2-fluoro-3-methoxyphenyl)-5-ethenyl-6-methoxycarbonyl-4-(2-nitrophenylmethyl-amino)-pyrimidine] | 70% | 90% | 90% | 100% | 70% | 90% | 50% | 70% | 100% | 100% | 0% | 100% |  |
| C=Cc1c(NCc2ccccc2[N+](=O)[O-])nc(-c2ccc(Cl)c(N(C)C)c2F)nc1C(=O)OC [Compound 16, 2-(4-Chloro-3-dimethylamino-2-fluorophenyl)-5-ethenyl-6-methoxycarbonyl-4-(2-nitrophenylmethyl-amino)-pyrimidine] | 70% | 70% | 80% | 100% | 90% | 60% | 60% | 70% | 30% | 50% | 70% | 0% |  |
| C/C=C/c1c(N)nc(-c2ccc(Cl)c(N(C)C)c2F)nc1C(=O)OC [Compound 12, (E)-4-Amino-2-(4-chloro-3-dimethylamino-2-fluorophenyl)-6-methoxy-carbonyl-5-(prop-1-enyl)-pyrimidine] | 80% | 80% | 80% | 100% | 80% | 40% | 70% | 90% | 80% | 100% | 80% | 0% |  |
